11 compounds from PubChem BioAssay AID330 (DTP/NCI, 2004) can be followed below.

SMILES strings stand for the structures. Where “and” joins values, the source holds several entries; their conditions need not be identical. Equal values may be shown once. Toxic doses and inconclusive results are not listed.

In the test the test system is P388 leukemia ip, CD2F1 mice, survival T/C. Put plainly: NCI In Vivo Anticancer Drug Screen. Data for tumor model P388 Leukemia (intraperitoneal) in CD2F1 (CDF1) mice. As to conditions: endpoint: median survival time, higher = longer survival. The method, boiled down: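 Mice carrying the transplanted tumor received test compound or vehicle. Survival was recorded in each group, and the value is the treated-group measurement divided by that of the vehicle-treated control group.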

Where [1] appears, read: dose: 50.0 mg/kg/injection, schedule: Q01DX005 (ip), vehicle: Klucel (hydroxypropylcellulose) (HPC).
The mark [2] stands for this setting: dose: 100.0 mg/kg/injection, schedule: Q01DX005 (ip), vehicle: Klucel (hydroxypropylcellulose) (HPC).
Setting [3] is: dose: 200.0 mg/kg/injection, schedule: Q01DX005 (ip), vehicle: Klucel (hydroxypropylcellulose) (HPC).
[4] abbreviates: dose: 60.0 mg/kg/injection, schedule: Q01DX005 (ip), vehicle: Klucel (hydroxypropylcellulose) (HPC).
Where [5] appears, read: dose: 120.0 mg/kg/injection, schedule: Q01DX005 (ip), vehicle: Klucel (hydroxypropylcellulose) (HPC).
The mark [6] stands for this setting: dose: 240.0 mg/kg/injection, schedule: Q01DX005 (ip), vehicle: Klucel (hydroxypropylcellulose) (HPC).

Consider `CO[C@@]12[C@H](COC(N)=O)C3=C(C(=O)C(C)=C(N)C3=O)N1C[C@@H]1N[C@@H]12`, for which the T/C is 160 % of control and 166 % of control (dose: 0.25 mg/kg/injection, schedule: Q01DX009 (ip), vehicle: saline with Tween-80); 150 % of control and 157 % of control and 210 % of control (dose: 0.5 mg/kg/injection, schedule: Q01DX009 (ip), vehicle: saline with Tween-80); 112 % of control (dose: 0.5 mg/kg/injection, schedule: Q04DX003 (ip), vehicle: saline); 160 % of control (dose: 0.65 mg/kg/injection, schedule: Q04DX002 (ip), vehicle: saline); 150 % of control and 163 % of control (dose: 0.75 mg/kg/injection, schedule: Q04DX003 (ip), vehicle: saline); 170 % of control (dose: 0.75 mg/kg/injection, schedule: Q04DX003 (ip), vehicle: water). The T/C (dose: 0.78 mg/kg/injection, schedule: Q04DX003 (ip), vehicle: saline) was 152 % of control and 153 % of control; the T/C (dose: 0.97 mg/kg/injection, schedule: Q04DX003 (ip), vehicle: saline) is 150 % of control; the T/C (dose: 1.0 mg/kg/injection, schedule: Q01DX009 (ip), vehicle: saline with Tween-80) was 166 % of control and 169 % of control; the T/C (dose: 1.08 mg/kg/injection, schedule: Q04DX002 (ip), vehicle: saline) was 164 % of control; the T/C (dose: 1.1 mg/kg/injection, schedule: Q04DX003 (ip), vehicle: water) is 159 % of control; the T/C (dose: 1.3 mg/kg/injection, schedule: Q04DX002 (ip), vehicle: saline) is 163 % of control. The T/C was 174 % of control and 180 % of control (dose: 1.3 mg/kg/injection, schedule: Q04DX003 (ip), vehicle: saline); 155 % of control and 161 % of control and 183 % of control (dose: 1.5 mg/kg/injection, schedule: Q04DX003 (ip), vehicle: saline); 163 % of control and 200 % of control (dose: 1.5 mg/kg/injection, schedule: Q04DX003 (ip), vehicle: water); 163 % of control (dose: 1.62 mg/kg/injection, schedule: Q04DX003 (ip), vehicle: saline); 175 % of control (dose: 1.8 mg/kg/injection, schedule: Q04DX002 (ip), vehicle: saline); 174 % of control (dose: 1.8 mg/kg/injection, schedule: Q04DX003 (ip), vehicle: water). Also, the T/C was 104 % of control and 120 % of control (dose: 2.0 mg/kg/injection, schedule: Q01DX009 (ip), vehicle: saline with Tween-80); 163 % of control (dose: 2.0 mg/kg/injection, schedule: Q04DX003 (ip), vehicle: saline); 162 % of control (dose: 2.16 mg/kg/injection, schedule: Q04DX002 (ip), vehicle: saline); 155 % of control (2×) and 174 % of control (dose: 2.16 mg/kg/injection, schedule: Q04DX003 (ip), vehicle: saline); 183 % of control and 204 % of control (dose: 2.7 mg/kg/injection, schedule: Q04DX003 (ip), vehicle: saline); 169 % of control (dose: 3.0 mg/kg/injection, schedule: Q01DX001 (ip), vehicle: saline). Also, the T/C by setting is: (dose: 3.0 mg/kg/injection, schedule: Q04DX002 (ip), vehicle: saline) 212 % of control; (dose: 3.0 mg/kg/injection, schedule: Q04DX003 (ip), vehicle: water) 190 % of control and 197 % of control; (dose: 3.5 mg/kg/injection, schedule: Q01DX001 (ip), vehicle: carboxymethylcellulose (CMC)) 183 % of control; (dose: 3.6 mg/kg/injection, schedule: Q01DX001 (ip), vehicle: water) 175 % of control and 176 % of control; (dose: 3.6 mg/kg/injection, schedule: Q04DX002 (ip), vehicle: saline) 159 % of control; (dose: 3.6 mg/kg/injection, schedule: Q04DX003 (ip), vehicle: saline) 184 % of control and 220 % of control and 235 % of control. For the same compound, the T/C is, setting by setting: (dose: 4.0 mg/kg/injection, schedule: Q01DX001 (ip), vehicle: saline) 156 % of control and 167 % of control; (dose: 4.0 mg/kg/injection, schedule: Q04DX003 (ip), vehicle: saline) 150 % of control; (dose: 4.4 mg/kg/injection, schedule: Q01DX001 (ip), vehicle: saline) 158 % of control; (dose: 4.5 mg/kg/injection, schedule: Q04DX003 (ip), vehicle: saline) 219 % of control; (dose: 4.7 mg/kg/injection, schedule: Q01DX001 (ip), vehicle: saline) 174 % of control; (dose: 5.0 mg/kg/injection, schedule: Q04DX002 (ip), vehicle: saline) 157 % of control. In addition, the T/C was 228 % of control (dose: 5.0 mg/kg/injection, schedule: Q04DX003 (ip), vehicle: water); 191 % of control (dose: 5.3 mg/kg/injection, schedule: Q01DX001 (ip), vehicle: carboxymethylcellulose (CMC)); 184 % of control and 206 % of control and 216 % of control (dose: 5.4 mg/kg/injection, schedule: Q01DX001 (ip), vehicle: water); 162 % of control and 166 % of control and 255 % of control (dose: 6.0 mg/kg/injection, schedule: Q01DX001 (ip), vehicle: saline); 120 % of control (dose: 6.0 mg/kg/injection, schedule: Q04DX002 (ip), vehicle: saline); 188 % of control (dose: 6.7 mg/kg/injection, schedule: Q01DX001 (ip), vehicle: saline). The T/C reads like this: (dose: 7.0 mg/kg/injection, schedule: Q01DX001 (ip), vehicle: saline) 165 % of control; (dose: 7.5 mg/kg/injection, schedule: Q04DX003 (ip), vehicle: saline) 122 % of control; (dose: 8.0 mg/kg/injection, schedule: Q01DX001 (ip), vehicle: water) 178 % of control and 222 % of control and 280 % of control; (dose: 8.3 mg/kg/injection, schedule: Q04DX003 (ip), vehicle: water) 87 % of control.

`NCCCNC(=O)c1ccccc1N`: the T/C was 100 % of control under setting [1], 100 % of control under setting [2] and 100 % of control under setting [3].

For the compound `Cn1c(=O)nc2n(C)c3ccccc3cc-2c1=O`, the T/C by setting is: (dose: 50.0 mg/kg/injection, schedule: Q01DX009 (ip), vehicle: saline with Tween-80) 116 % of control; (dose: 100.0 mg/kg/injection, schedule: Q01DX009 (ip), vehicle: saline with Tween-80) 116 % of control; (dose: 200.0 mg/kg/injection, schedule: Q01DX009 (ip), vehicle: saline with Tween-80) 113 % of control.

For `COc1ccc(C(=O)NCc2cccnc2)cc1C(=O)NCc1cccnc1`, the T/C was 94 % of control (dose: 50.0 mg/kg/injection, schedule: Q01DX005 (ip), vehicle: saline with Tween-80); 103 % of control (dose: 100.0 mg/kg/injection, schedule: Q01DX005 (ip), vehicle: saline with Tween-80); 99 % of control (dose: 200.0 mg/kg/injection, schedule: Q01DX005 (ip), vehicle: saline with Tween-80).

For the compound `Nc1[nH]c(=S)[nH]c(=O)c1NS(=O)(=O)c1cccc([N+](=O)[O-])c1`, the T/C was 103 % of control and 105 % of control (dose: 30.0 mg/kg/injection, schedule: Q01DX005 (ip), vehicle: Klucel (hydroxypropylcellulose) (HPC)); 100 % of control and 97 % of control under setting [4]; 98 % of control and 97 % of control under setting [5]; 99 % of control and 106 % of control under setting [6].

Turning to `Brc1nc(Br)c(Br)[nH]1`, the T/C (dose: 50.0 mg/kg/injection, schedule: Q01DX009 (ip), vehicle: saline sonified) was 91 % of control.

As for `COc1ccc(C(=O)c2ccccc2)c(C(=O)O)c1`, the T/C is, setting by setting: under setting [1], 101 % of control; under setting [2], 97 % of control; under setting [3], 104 % of control.

On to `O=C(CCl)Nc1nncs1`, for which the T/C reads like this: (dose: 12.5 mg/kg/injection, schedule: Q01DX009 (ip), vehicle: distilled water + Tween-80) 100 % of control; (dose: 25.0 mg/kg/injection, schedule: Q01DX009 (ip), vehicle: distilled water + Tween-80) 104 % of control; (dose: 50.0 mg/kg/injection, schedule: Q01DX009 (ip), vehicle: distilled water + Tween-80) 106 % of control; (dose: 100.0 mg/kg/injection, schedule: Q01DX009 (ip), vehicle: distilled water + Tween-80) 104 % of control; (dose: 200.0 mg/kg/injection, schedule: Q01DX009 (ip), vehicle: distilled water + Tween-80) 100 % of control.

On to `NC(CSC1(c2cccc3ccccc23)c2ccccc2-c2ccccc21)C(=O)O` (configuration not stated), for which the T/C was 93 % of control under setting [4], 90 % of control under setting [5] and 88 % of control under setting [6].

Take `COc1ccc(C2(c3ccc(OC)cc3)N=NC3(C)CC32)cc1` (configuration not stated): the T/C runs as follows: (dose: 100.0 mg/kg/injection, schedule: Q01DX001 (ip), vehicle: saline with Tween-80) 92 % of control; (dose: 200.0 mg/kg/injection, schedule: Q01DX001 (ip), vehicle: saline with Tween-80) 89 % of control; (dose: 400.0 mg/kg/injection, schedule: Q01DX001 (ip), vehicle: saline with Tween-80) 86 % of control.

On to `CS(=O)(=O)N/N=C1/C=C2C/C(=N\NS(C)(=O)=O)C=C2C1`, for which the T/C runs as follows: under setting [1], 92 % of control; under setting [2], 96 % of control; under setting [3], 95 % of control.
